Structures are written as SMILES. Values after ≈ are worked out from the molar mass of the structure shown. Where two headings read alike, the source gives them in different places. Bounds are passed on as bounds.

Series [1] can be described thus: Simulated gastric fluid (SGF) stability. To be noted: simulated gi fluid; for half-life: SGF stability t1/2. It is filed as in vitro ADME. Here is the method: The simulated gastric fluid (SGF) assay is an important element in determining the overall drug-like potential of compounds.[29],[30] Anecdotal studies of oral consumption of extracts by humans indicate positive outcomes of digestion of mixtures of EP and its related natural products found in G. lucidum.[2] […] Chlorambucil was used as positive control as previously described.[32],[33] […] Caco-2 permeability studies were conducted to validate and to provide information on EP’s ability to cross the intestinal barrier and its potential for interactions with drug transporters.[36]−[39] The rate of transport in both directions (A-B and B-A) across the cell monolayer enables an efflux ratio (B-A/A-B) to be determined, enabling us to determine if a compound undergoes active efflux (efflux ratio ≥2).

The nature of series [2]: Metabolic stability in mouse liver microsomes. To be noted: female, CD-1, pooled liver microsomes, read-out: metabolic stability (mouse) t1/2 (converted). It counts as in vitro ADME. Background: Liver microsomes are a subcellular fraction often used to study metabolism.
Description: Human and/or mouse microsomal degradation was determined using multiple time points to monitor the rate of disappearance of the parent compound during incubation following the method described by Di et al.[51],[52] […] The metabolic stability was evaluated via the half-life from the least-squares fit of the multiple time points based on first-order kinetics. Waters ACQUITY-TOQ UPLC-MS-MS-UV system was used to analyze the samples as established in various MS core facilities.[51],[52]
Series [3] in a line: Aqueous solubility by UV/vis absorbance. It counts as physicochemical. Particulars: kinetic from dmso stock. From the text:
First, topological polar surface area (tPSA), a widely used molecular descriptor that provides insight into compound absorption and membrane penetration, was theoretically calculated for these compounds along with the estimated c log P (partition coefficient) or log P to further assess their global therapeutic potential.[18],[19] Lipophilicity, a measurable and predictable physical property, can provide practical guidance in designing compounds with improved molecular properties.[20] The tPSA sums the contribution of the surface area of polar atoms, enabling us to determine whether the compounds are more likely to be cell membrane permeable. The aqueous solubility was measured by ultraviolet/visible (UV/vis) spectroscopy.[21] […] EP shares an improved cLogP, but still relatively high from a desirable drug candidate (2.5–3.5). […] Compound 4 has a higher c log P, while compounds 5–10 have lower c log P values. To determine LiPE (lipophilicity efficiency), the following formula was used: LiPE = pIC50 – log P, according to established methods.[22],[23] […] The obtained EC50 values for the newly generated EP derivatives were within a similar range for other derivatives previously described against TNBC models.[17]
Briefly, clear 96-well PS plates with lids (catalog no. 3903, Corning, Glendale, Arizona) were used for spectrophotometric determination of absorbance with a CLARIOstar Plus plate reader (BMG LabTech, Ortenberg, Germany) to determine at which concentration the compounds are precipitating out of solution. Decrease in transmittance of 2% or higher was considered significant. Compound solutions of 10 mM in DMSO were prepared followed by a serial dilution series, which were vortexed to ensure the solutions were homogeneous. The 96-well plate was then prepared with distilled H2O and allowed to equilibrate for 1.5 h. Then, the plate was placed in a CLARIOstar Plus plate reader or Cytation C10 (Biotek, Agilent) and set to detect absorbance at 220–700 nm. Each well was read individually. Three replicate assays were conducted for each experimental condition, and a minimum of three independent experiments were conducted.

Series [4] relates to BJ. As to the kind of experiment: CellTiter-Glo 72 h cytotoxicity assay, BJ normal fibroblasts. To be noted: Homo sapiens, CTG assay, noncancerous fibroblasts. It is filed as cell-based. Here is the method:
(§1) The following stable human cell lines were utilized for this study: SUM149 and MDA-MB-231 (breast cancer models) and BJ (human normal fibroblast, foreskin). Cells were purchased from BioIVT or the American Type Culture Collection (ATCC). Cells were cultured in F-12-Nutrient Mixture (SUM149), DMEM (MDA-MB-231), or EMEM (BJ) medium supplemented with 10% fetal bovine serum (Sigma-Aldrich, St. Louis, MO) and 2 mmol of L-glutamine, at 37 °C in a humidified 5% CO2 atmosphere (no antibiotics) as indicated by the manufacturer. Cell cultures were grown to 80–90% confluence before use, except where otherwise specified. Our cell lines are authenticated every 3 months using the CellCheck service (Idexx BioResearch, Westbrook, ME). Cells were tested for mycoplasma prior to use (MycoAlert detection Kit Lonza LT07–318) and discarded if they tested positive. A cell proliferation assay was performed using the CellTiter-Glo (Promega Corp., Madison, WI) luminescent cell viability assay kit. Cells were detached with trypsin, counted, and seeded in white polystyrene flat-bottom sterile 96-well tissue culture-treated plates (catalog no. 3917, Corning, Glendale, Arizona) and incubated overnight at 37 °C. MDA-MB231, SUM149, and BJ cells were seeded into 96-well plates at concentrations experimentally determined (0.4 × 10^4, 0.25 × 10^4, and 0.3 × 10^4 cells per well, respectively) to ensure logarithmic growth during the duration of the experiment and to prevent adverse effects on cell growth by DMSO exposure. The plates were incubated for 12 h before treatment. Stock solutions of test compounds (10 mM in DMSO) in nine 3-fold serial dilutions were dispensed. The final concentration of DMSO was 0.3% (v/v) in each well. The positive control used was staurosporine (10 μM) as the kill-all control, and the negative control used is DMSO as we have published. Staurosporine is a potent alkaloid inducer of various cell death modalities but primarily apoptosis, making it a reliable positive control for viability assays. The plates were incubated for 72 h and then quenched with CTG at 50 μL per well at RT. Plates were then incubated at RT for 20 min and centrifuged at 1000 rpm for 1 min. Luminescence was read on a CLARIOstar Plus plate reader (BMG LabTech, Ortenberg, Germany).
(§2) Three or four technical replicates were conducted for each experimental condition, and a minimum of three independent experiments were conducted for each assay. In vitro ADME values were expressed as mean ± standard deviation (SD) of at least three independent experiments. One-way analysis of variance (ANOVA) was adopted for comparisons among groups using the GraphPad Prism 10.2.3 (GraphPad Software, San Diego, CA). A difference of P < 0.05 was considered as statistically significant. Data are expressed as mean ± SEM. For CTG, the mean luminescence of each experimental treatment group was normalized as a percentage of the mean intensity of untreated controls (DMSO as vehicle). EC50 values were calculated from dose–response curve fitting via nonlinear regression using GraphPad Prism 10.2.3 (GraphPad Software, San Diego, CA). A therapeutic index (TI) between normal and tumor cell lines can be determined (EC50 non-neoplastic cell line BJ)/(EC50 cancer cell line). In vivo studies were analyzed using mixed-effects regression models to compare the changes in tumor volume over time by treatment group. Tumor volume reduction was compared using ANOVA with repeated measures, and all data was considered significant when P < 0.05.
On the technique in general: Cellular ATP, detected with luciferase, serves as a proxy for viable cell number.

The subject of series [5] is MDA-MB-231. As to the kind of experiment: CellTiter-Glo 72 h cytotoxicity assay, MDA-MB-231. It is filed as cell-based. Particulars: Homo sapiens, CTG assay, read-out: MDA-MB231 (EC50). How it is done:
as §1, §2

Regarding `CC(C)[C@@H](C)/C=C/[C@@H](C)[C@H]1CC[C@@H]2[C@]1(C)CC[C@H]1[C@]23C=C[C@]2(C[C@@H](O)CC[C@]12C)OO3` [Compound 2, Ergosterol peroxide], the half-life in series [1] was more than 48 h; in series [2] it was 5.63 h. The solubility at […] in series [3] (distilled water, distilled H2O, UV/vis, read-out: solubility limit) was 21.4 µg/mL (≈ 50 µM). Also, the EC50 is more than 50 µM in series [4] and 18 µM in series [5].
`CC(C)[C@@H](C)/C=C/[C@@H](C)[C@H]1CC[C@@H]2[C@]1(C)CC[C@H]1[C@]23C=C[C@]2(CC(=O)CC[C@]12C)OO3` [Compound 3]: the “SGF stability t1/2” value in series [1] is given as 8.92 h. Further, the half-life is approximately 9 h in series [1] and 0.9 h in series [2]. This molecule also registered a solubility at […] in series [3] (water) of 10.7 µg/mL (≈ 25 µM). The values for the EC50 in series [4] and in series [5] were more than 50 µM and 7 µM, respectively.

The term solubility denotes the concentration that dissolves in the medium under given conditions. Broadly, the EC50 is the concentration needed to bring the measured effect to its halfway point.

Source of the values: PMC11375702, “Early Preclinical Studies of Ergosterol Peroxide and Biological Evaluation of Its Derivatives” (ACS Omega, 2024).
